Source: ChEMBL document CHEMBL1142445, “Carbonic anhydrase inhibitors: inhibition of Plasmodium falciparum carbonic anhydrase with aromatic/heterocyclic sulfonamides-in vitro and in vivo studies” (Bioorg Med Chem Lett, 2008)
The source made the active and inactive calls. No cut-off for these calls is given here.

Tests used:
[1] = (§1) Inhibition of Plasmodium falciparum recombinant carbonic anhydrase
Plasmodium falciparum [2] = test: Ex vivo inhibition of Plasmodium falciparum growth in cultured cells after 48hrs as [3H]hypoxanthine uptake; format: functional, organism-based
Plasmodium falciparum [3] = test: as §1
BC = test: Cytotoxicity against human BC cells; format: functional, cell-based
KB = test: Cytotoxicity against human KB cells; format: functional, cell-based
Plasmodium berghei [4] = test: Antimalarial activity against Plasmodium berghei infected mice (Mus musculus) at 2.5 to 25 mg/kg; format: functional, organism-based
Plasmodium berghei [5] = test: Antimalarial activity against Plasmodium berghei infected mice (Mus musculus); format: functional; settings: read-out: ID50 (the source's name)

Structure (SMILES) | Ki [1] | IC50 (Plasmodium falciparum [2]) | further results
COc1ccc2c(CC(=O)Nc3ccc(S(N)(=O)=O)cc3)cc(=O)oc2c1 | 0.97 µM | > 50 µM | 
COc1ccc2c(CC(=O)Nc3cc(C(F)(F)F)c(S(N)(=O)=O)cc3S(N)(=O)=O)cc(=O)oc2c1 | 2.52 µM | > 50 µM | 
CN(C)c1ccc(/C=N/CCCc2ccc(S(N)(=O)=O)cc2)cc1 | > 25 µM | > 50 µM | 
C=C[C@H]1CN2CC[C@H]1C[C@H]2[C@H](O)c1ccnc2ccc(OC)cc12 |  |  | Activity (Plasmodium falciparum [3]): inactive
NS(=O)(=O)c1ccccc1NS(=O)(=O)c1c(F)c(F)c(F)c(F)c1F | 3.06 µM | > 50 µM | 
CC(=O)NS(=O)(=O)c1ccc(NC(=S)Nc2ccc(S(N)(=O)=O)cc2)cc1 | 4.62 µM | > 50 µM | 
NS(=O)(=O)c1nnc(NC(=O)c2c(F)c(F)c(F)c(F)c2F)s1 | 3.44 µM | > 50 µM | 
CCN(CC)C(=S)SNc1ccc(S(N)(=O)=O)cc1 | 3 µM | > 50 µM | 
COc1ccc2c(CC(=O)Nc3cccc(S(N)(=O)=O)c3)cc(=O)oc2c1 | 4.58 µM | > 50 µM | 
Cn1ccnc1/C=N/CCCc1ccc(S(N)(=O)=O)cc1 | > 25 µM | > 50 µM | 
COc1ccc2c(CC(=O)Nc3ccccc3S(N)(=O)=O)cc(=O)oc2c1 | 1.44 µM | > 50 µM | 
CN(C)c1ccc(/C=N/c2ccc(S(N)(=O)=O)cc2)cc1 | > 25 µM | > 50 µM | 
CN(C)c1ccc(/C=N/Cc2ccc(S(N)(=O)=O)cc2)cc1 | > 25 µM | > 50 µM | 
NS(=O)(=O)c1ccc(NS(=O)(=O)c2ccc(NC(=O)N(c3ccccc3)c3ccccc3)cc2)cc1 | 16.5 µM | > 50 µM | 
NS(=O)(=O)c1ccc(/N=C/c2ccc3ccccc3c2Br)cc1 | 4.16 µM | > 50 µM | 
CC(=O)Nc1nnc(S(N)(=O)=O)s1 [ACETAZOLAMIDE] | 0.315 µM | 20 µM | Activity (BC): inactive; Activity (KB): inactive; Activity (Plasmodium berghei [4]): inactive
NC(=S)Nc1ccc(S(N)(=O)=O)cc1 | 2.1 µM | > 50 µM | 
NS(=O)(=O)c1nnc(NC(=S)NC(=O)Nc2ccccc2)s1 | 6.73 µM | > 50 µM | 
CCN(CC)C(=S)SNCc1ccc(S(N)(=O)=O)cc1 | 8.39 µM | > 50 µM | 

Structure (SMILES) | Ki [1] | IC50 (Plasmodium falciparum [2]) | further results
NS(=O)(=O)c1nnc(NS(=O)(=O)c2c(F)c(F)c(F)c(F)c2F)s1 | 2.58 µM | > 50 µM | 
NS(=O)(=O)c1nnc(NS(=O)(=O)C(F)(F)C(F)(F)C(F)(F)C(F)(F)C(F)(F)C(F)(F)C(F)(F)C(F)(F)F)s1 | 0.192 µM | > 50 µM | 
NS(=O)(=O)c1ccc(NNC(=O)c2cc3ccccc3oc2=O)cc1 | 4.06 µM | > 50 µM | 
NS(=O)(=O)c1ccc(NC(=O)c2ccc(S(N)(=O)=O)cc2)cc1 | 3.05 µM | > 50 µM | 
NS(=O)(=O)c1ccccc1NC(=O)N(c1ccccc1)c1ccccc1 | 1.99 µM | > 50 µM | 
NS(=O)(=O)c1ccc(CNC(=O)N(c2ccccc2)c2ccccc2)cc1 | 16 µM | > 50 µM | 
NS(=O)(=O)c1cc(S(N)(=O)=O)c(C(F)(F)F)cc1NC(=O)c1cc2ccccc2oc1=O | 9.03 µM | > 50 µM | 
NS(=O)(=O)c1cccc(NC(=O)c2cc3ccccc3oc2=O)c1 | > 25 µM | > 50 µM | 
NS(=O)(=O)c1ccc(C/N=C/c2ccccc2Cl)cc1 | 0.25 µM | 3.89 µM | Activity (BC): inactive; Activity (KB): inactive; Activity (Plasmodium berghei [4]): inactive
CCN(CC)CCCC(C)Nc1ccnc2cc(Cl)ccc12 (stereo not drawn) [CHLOROQUINE] |  |  | ED50 (Plasmodium berghei [5]): 5 mg/kg; Activity (Plasmodium falciparum [3]): inactive
NS(=O)(=O)c1ccc(NC(=O)Nc2ccc(Cl)c(Cl)c2)cc1 | 5.58 µM | > 50 µM | 
NS(=O)(=O)c1ccccc1NC(=O)c1cc2ccccc2oc1=O | 18.5 µM | > 50 µM | 
NS(=O)(=O)c1ccc(NC(=O)c2cc3ccccc3oc2=O)cc1 | 5.82 µM | > 50 µM | 
NS(=O)(=O)c1ccc(CNC(=S)NC(=O)c2ccc(Cl)c(Cl)c2)cc1 | 0.18 µM | 1 µM | Activity (BC): inactive; Activity (KB): inactive; ED50 (Plasmodium berghei [5]): 10 mg/kg
NS(=O)(=O)c1ccc(CNC(=O)c2cc3ccccc3oc2=O)cc1 | 5.05 µM | > 50 µM | 
Cn1nc(S(N)(=O)=O)s/c1=N/C(=O)c1c(F)c(F)c(F)c(F)c1F | 6.87 µM | > 50 µM | 
C[C@@H]1CC[C@H]2[C@@H](C)C(=O)O[C@@H]3O[C@@]4(C)CC[C@@H]1[C@]32OO4 |  |  | Activity (Plasmodium falciparum [3]): inactive
COc1ccc2c(CC(=O)NNc3ccc(S(N)(=O)=O)cc3)cc(=O)oc2c1 | 3.51 µM | > 50 µM | 
NS(=O)(=O)c1ccc(CCNC(=O)c2cc3ccccc3oc2=O)cc1 | 13.2 µM | > 50 µM | 
